One compound from paper PMC5773577, “Novel Miniature Membrane Active Lipopeptidomimetics against Planktonic and Biofilm Embedded Methicillin-Resistant Staphylococcus aureus” (Scientific Reports, 2018) can be followed below.

Test [1] concerns Methicillin-resistant S. epidermidis (ATCC 35984). Put plainly: microbe, parasite or virus in culture. The settings on record: Staphylococcus epidermidis, ATCC 35984 / MRSE; MRSE ATCC 35984; MHB, 2–5 × 10^5 CFU/mL, 16–18 h, 37 °C, OD600; read-out: Minimum inhibitory concentration, MIC. The class given is cell-based, Staphylococcus epidermidis. On the procedure: (§1) The antibacterial activity was evaluated as MIC using slight modifications to a serial broth micro dilution method as reported previously[66],[67]. Briefly, to each treatment well of the 96-well plate (Corning Incorporated, USA) 10 μL of peptidomimetic/antibiotic was added and subsequently diluted serial 2-fold in 0.2% BSA (in 0.01% acetic acid). Then to each well of the first 11 columns 100 μL of mid-log phase bacterial suspension in MHB medium was added to get 2–5 × 10^5 CFU/mL. Cultures without test peptidomimetics/antibiotics were used as growth control. Uninoculated MHB medium was used as negative control. The microtitre plates were incubated overnight with agitation (180 rpm) at 37 °C. After 16–18 h incubation, absorbance was read at 600 nm using an ELISA plate reader (Molecular Devices, Sunnyvale, CA, USA). The experiments were carried out in duplicate on at least three different days.

The subject of a further test is MRSA (ATCC 33591). Put plainly: microbe, parasite or virus in culture. The class given is cell-based, Staphylococcus aureus. The settings on record: Staphylococcus aureus, MHB, 2–5 × 10^5 CFU/mL, 16–18 h, 37 °C, OD600, read-out: Minimum inhibitory concentration, MIC. The method, then: as §1
For a further test, the system named is S. aureus (ATCC 29213). Put plainly: microbe, parasite or virus in culture. Particulars: Staphylococcus aureus, ATCC29213, MHB, 2–5 × 10^5 CFU/mL, 16–18 h, 37 °C, OD600, duplicate, at least three days, read-out: Minimum inhibitory concentration, MIC. The class given is cell-based, Staphylococcus aureus. On the procedure:
as §1

Another test deals with MRSA (ATCC 43300). Put plainly: microbe, parasite or virus in culture. The class given is cell-based, Staphylococcus aureus. The settings on record: Staphylococcus aureus, MHB, 2–5 × 10^5 CFU/mL, 16–18 h, 37 °C, OD600, read-out: Minimum inhibitory concentration, MIC. The method, then: as §1
The next test concerns S. aureus (ISP479C). Put plainly: microbe, parasite or virus in culture. The class given is cell-based, Staphylococcus aureus. Particulars: Staphylococcus aureus, MHB, 2–5 × 10^5 CFU/mL, 16–18 h, 37 °C, OD600, read-out: Minimum inhibitory concentration, MIC. The method, then:
as §1

The subject of the next test is S. aureus (ATCC 25923). Put plainly: microbe, parasite or virus in culture. The class given is cell-based, Staphylococcus aureus. The settings on record: Staphylococcus aureus, ATCC25923, MHB, 2–5 × 10^5 CFU/mL, 16–18 h, 37 °C, OD600, read-out: Minimum inhibitory concentration, MIC. On the procedure:
as §1

In test [2] the test system is Vancomycin-resistant E. faecium (ATCC 700221). Put plainly: microbe, parasite or virus in culture. The class given is cell-based. The settings on record: Enterococcus faecium, ATCC700221, MHB, 2–5 × 10^5 CFU/mL, 16–18 h, 37 °C, read-out: Minimum inhibitory concentration, MIC. On the procedure: as §1
For a further test, the system named is E. faecalis (ATCC 29212). Put plainly: microbe, parasite or virus in culture. In kind it is cell-based. Particulars: Enterococcus faecalis, ATCC29212, MHB, 2–5 × 10^5 CFU/mL, 16–18 h, 37 °C, read-out: Minimum inhibitory concentration, MIC. The method, then: as §1
Test [3] has as its system E. faecium (E-7846), clinical isolate of vancomycin-resistant E. faecium. Put plainly: organism not typed. In kind it is cell-based, Enterococcus faecium. Particulars: read-out: Minimum inhibitory concentration, MIC. The method, then:
as §1

Test [4] deals with E. faecium (E-447), clinical isolate of vancomycin-resistant E. faecium. Put plainly: organism not typed. In kind it is cell-based, Enterococcus faecium. Particulars: read-out: Minimum inhibitory concentration, MIC. On the procedure:
as §1

Molecules are shown by their SMILES. In brackets after ≈: the same amount, converted by molar mass. A value given as a limit tells only on which side of the number the result lay.

On to `Cc1onc(-c2ccccc2)c1C(=O)N[C@@H]1C(=O)N2[C@@H]1SC(C)(C)[C@@H]2C(=O)O` [OXA, oxacillin], for which the MIC was above 45.4 µg/mL in test [1]; 56.8 µg/mL (≈ 141 µM) with MRSA (ATCC 33591); below 0.3 µg/mL with S. aureus (ATCC 29213); 56.8 µg/mL (≈ 141 µM) in the test with MRSA (ATCC 43300); 0.3 µg/mL (≈ 0.747 µM) with S. aureus (ISP479C); below 0.3 µg/mL with S. aureus (ATCC 25923). Also, the MIC in test [2] is above 45.4 µg/mL; with E. faecalis (ATCC 29212), 5.6 µg/mL (≈ 13.9 µM); in test [3], above 233 µg/mL; in [4], above 233 µg/mL.
